The compounds below were run against human MRGPRD (Homo sapiens, UniProt Q8TDS7) (assay: MRGPRD antagonist activity, IP-One HTRF assay in CHO cells stably expressing human MRGPRD (versus 100 μM β-Alanine agonist)).
Sequence of human MRGPRD (Q8TDS7 whole entry): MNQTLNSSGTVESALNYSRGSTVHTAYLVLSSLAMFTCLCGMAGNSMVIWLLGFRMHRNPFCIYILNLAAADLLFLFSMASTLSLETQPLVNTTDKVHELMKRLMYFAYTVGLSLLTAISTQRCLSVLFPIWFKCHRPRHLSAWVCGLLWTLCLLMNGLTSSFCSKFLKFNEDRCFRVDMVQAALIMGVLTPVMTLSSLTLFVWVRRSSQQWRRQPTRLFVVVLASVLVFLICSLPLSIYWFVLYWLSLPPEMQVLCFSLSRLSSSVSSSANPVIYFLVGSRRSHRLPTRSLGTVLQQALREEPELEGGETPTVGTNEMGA
Format: cell-based
Procedure: Chinese Hamster Ovary (CHO) cells stably expressing human MRGPRD (Eurofins, San Diego CA) were plated in a 384-well plate at 20,000 cells per well in 12 μL of Optimem (Fisher Scientific 11-058-021). Plates were kept in the incubator at 37° C. overnight. Antagonists were solubilized at a concentration of 10 mM in DMSO, and the agonists were solubilized to stock concentrations of either 50 mM in H2O (β-Alanine) or 10 mM in DMSO (all others) and then diluted in assay buffer (final concentrations of 5.7 mM Tris-HCl, 43 mM NaCl, 50 mM LiCl, pH=8). The concentration of DMSO was normalized across the plate. Antagonists were added to the plate using a Tecan D300 Digital Dispenser at nanoliter/picoliter volumes and 2 μL of agonists in assay buffer were added to each well for a final assay volume of 14 μL. Plates were covered and incubated for 1 h at 37° C. and then for 1 h at room temperature. IP-1 standards and HTRF detection reagents were added according to an IP-One-Gq Kit purchased from Cisbio (part number 62IPAPEJ) and incubated in the dark for 1 h at room temperature. Assay plates were read on either a Molecular Devices SpectraMax iD5 plate reader or a BMG ClarioStar plate reader. The HTRF ratio was calculated form the raw data and graphed using GraphPad Prism to calculate IC50 values. Data are expressed as average IC50 values and average percent antagonism calculated as a percent of the maximum efficacy response. For these studies, the variability of the data was assessed by determining the standard error of mean (SEM).
The activity ranges are denoted as follows: “+++++” denotes antagonist activity <100 nM; “++++” denotes antagonist activity between 100 and 500 nM; “+++” denotes activity between 500 and 1000 nM; “++” denotes activity between 1000 and 3000 nM; and “+” denotes activity >3000 nM.
Work on `COc1cccc(-c2nc([C@@H]3CCCN(C(=O)Nc4ccccc4)C3)n3ccccc23)c1` [Compound 3-27] yielded an IC50 of under 100 nM. Compound `COc1cccc(-c2nc(C3CCCN(C(=O)Nc4ccccc4F)C3)n3ccccc23)c1` (stereo not shown) [Compound 3-28] has an IC50 of 100 to 500 nM. Compound `COc1cccc(-c2nc([C@H]3CCCN(C(=O)Nc4ccccc4)C3)n3ccccc23)c1` [Compound 3-29] has an IC50 of 1000 to 3000 nM. Compound `COc1cccc(-c2nc(C3CCCN(C(=O)Nc4ccc(OC)c(OC)c4)C3)n3ccccc23)c1` (stereo not shown) [Compound 4-1] has an IC50 of 100 to 500 nM. Compound `COc1cccc(-c2nc(C3CCCN(C(=O)Nc4cc(OC)c(OC)c(OC)c4)C3)n3ccccc23)c1` (stereo not shown) [Compound 4-2, 3-(1-(3-methoxyphenyl)imidazo[1,5-a]pyridin-3-yl)-N-(3,4,5-trimethoxyphenyl)piperidine-1-carboxamide] has an IC50 of under 100 nM. Work on `COc1cccc(-c2nc(C3CCCN(C(=O)Nc4ccccc4N(C)C)C3)n3ccccc23)c1` (stereo not shown) [Compound 4-3] yielded an IC50 of 500 to 1000 nM. `COc1cccc(-c2nc(C3CCCN(C(=O)Nc4ccc(C#N)cc4)C3)n3ccccc23)c1` (stereo not shown) [Compound 4-4] gave an IC50 of 500 to 1000 nM. For `COc1cccc(-c2nc(C3CCCN(C(=O)N(C)c4ccccc4)C3)n3ccccc23)c1` (stereo not shown) [Compound 5-1], the IC50 was 1000 to 3000 nM. With `COc1cccc(-c2nc(C3CCCN(C(=O)N(C)c4ccc(F)cc4)C3)n3ccccc23)c1` (stereo not shown) [Compound 5-2] the IC50 was 1000 to 3000 nM. For `COc1cccc(-c2nc(C3CCCN(C(=O)Nc4ccc(C)cc4F)C3)n3ccccc23)c1` (stereo not shown) [Compound 5-3], the IC50 was 500 to 1000 nM. Compound `COc1cccc(-c2nc(C3CCCN(C(=O)Nc4ccc(C)cc4C)C3)n3ccccc23)c1` (stereo not shown) [Compound 5-4] has an IC50 of 100 to 500 nM. In the case of `COc1cccc(-c2nc(C3CCCN(C(=O)Nc4ccc(C)cc4C)C3)n3ccccc23)c1` (stereo not shown) [Compound 5-5, N-(2,4-dimethylphenyl)-3-(1-(3-methoxyphenyl)imidazo[1,5-a]pyridin-3-yl)piperidine-1-carboxamide], the IC50 is reported as 100 to 500 nM. For `COc1cccc(-c2nn(C3CCCN(C(=O)Nc4ccc(N(C)C)cc4)C3)c3ccccc23)c1` (stereo not shown) [Compound 5-6], the IC50 was under 100 nM. `COc1cccc(-c2nc([C@@H]3CCCN(C(=O)Nc4ccc(CO)cc4)C3)n3ccccc23)c1` [Compound 5-7] was tested, and the IC50 was under 100 nM. Work on `COc1cccc(-c2nc(C3CCN(C(=O)Nc4cccc(N(C)C)c4)CC3)n3ccccc23)c1` [Compound 5-8] yielded an IC50 of 1000 to 3000 nM. `COc1cccc(-c2nc(C3CCN(C(=O)Nc4ccc(N(C)C)cc4)CC3)n3ccccc23)c1` [Compound 5-9] was tested, and the IC50 was over 3000 nM. `COc1cccc(-c2nc([C@@H]3CCCN(C(=O)Nc4ccc(F)cc4)C3)n3ccccc23)c1` [Compound 5-10] was tested, and the IC50 was 100 to 500 nM. `COc1cccc(-c2nc([C@@H]3CCCN(C(=O)Nc4ccccc4OC)C3)n3ccccc23)c1` [Compound 5-11] showed an IC50 of 100 to 500 nM. `COc1cccc(-c2nc([C@@H]3CCCN(C(=O)Nc4ccccc4F)C3)n3ccccc23)c1` [Compound 5-12] showed an IC50 of under 100 nM. For `COc1cccc(-c2nc([C@@H]3CCCN(C(=O)Nc4ccccc4OC(F)(F)F)C3)n3ccccc23)c1` [Compound 5-13], the IC50 was 500 to 1000 nM. `CCOc1ccccc1NC(=O)N1CCC[C@@H](c2nc(-c3cccc(OC)c3)c3ccccn23)C1` [Compound 5-14] showed an IC50 of 100 to 500 nM. Compound `COc1cccc(-c2nc([C@@H]3CCCN(C(=O)Nc4cccc(C(C)=O)c4)C3)n3ccccc23)c1` [Compound 5-15] has an IC50 of under 100 nM. `COc1cccc(-c2nc([C@@H]3CCCN(C(=O)Nc4ccc(-n5cccn5)cc4)C3)n3ccccc23)c1` [Compound 5-16] was tested, and the IC50 was under 100 nM. For `COc1cccc(-c2nc([C@@H]3CCCN(C(=O)NCc4ccc(N(C)C)cc4)C3)n3ccccc23)c1` [Compound 5-17], the IC50 was under 100 nM. Compound `COc1cccc(-c2nc([C@@H]3CCCN(C(=O)Nc4cccc(C(=O)N(C)C)c4)C3)n3ccccc23)c1` [Compound 5-18] has an IC50 of under 100 nM. Work on `COc1cccc(-c2nc(C3CCCN(C(=O)Nc4cccc(N(C)C)c4)C3)n3ncccc23)c1` (stereo not shown) [Compound 5-19] yielded an IC50 of under 100 nM. In the case of `COc1cccc(-c2nc(C3CCCN(C(=O)Nc4ccc(N(C)C)cc4)C3)n3ncccc23)c1` (stereo not shown) [Compound 5-20], the IC50 is reported as under 100 nM. `COc1cccc(-c2nc([C@@H]3CCCN(C(=O)Nc4ccc(OC(F)(F)F)cc4)C3)n3ccccc23)c1` [Compound 5-21] showed an IC50 of 500 to 1000 nM. `COc1cccc(-c2nc([C@@H]3CCCN(C(=O)Nc4ccc(-c5ccccc5)cc4)C3)n3ccccc23)c1` [Compound 5-22] gave an IC50 of 1000 to 3000 nM. For `COc1cccc(-c2nc([C@@H]3CCCN(C(=O)Nc4ccc(C(F)(F)F)cc4)C3)n3ccccc23)c1` [Compound 5-23], the IC50 was 500 to 1000 nM. Work on `COc1cccc(-c2nc([C@@H]3CCCN(C(=O)Nc4ccc(C(C)=O)cc4)C3)n3ccccc23)c1` [Compound 5-24] yielded an IC50 of under 100 nM. `COc1cccc(-c2nc([C@@H]3CCCN(C(=O)Nc4ccc(C)cc4C)C3)n3ccccc23)c1` [Compound 5-25] was tested, and the IC50 was under 100 nM. Compound `COc1cccc(-c2nc([C@@H]3CCCN(C(=O)Nc4cccc5c4CCC5)C3)n3ccccc23)c1` [Compound 5-26] has an IC50 of 100 to 500 nM. Work on `COc1cccc(-c2nc([C@@H]3CCCN(C(=O)Nc4ccc5c(c4)OCO5)C3)n3ccccc23)c1` [Compound 5-27] yielded an IC50 of under 100 nM. Compound `COc1cccc(-c2nc([C@@H]3CCCN(C(=O)Nc4ccccc4CO)C3)n3ccccc23)c1` [Compound 5-28] has an IC50 of under 100 nM. With `COc1cccc(-c2nc([C@@H]3CCCN(C(=O)NCCc4nc(C)cs4)C3)n3ccccc23)c1` [Compound 5-30] the IC50 was 100 to 500 nM. `COc1cccc(-c2nc([C@@H]3CCCN(C(=O)Nc4cccc(CN(C)C)c4)C3)n3ccccc23)c1` [Compound 5-31] gave an IC50 of 100 to 500 nM. Work on `COc1cccc(-c2nc([C@@H]3CCCN(C(=O)Nc4ccc5c(c4)CCC5)C3)n3ccccc23)c1` [Compound 5-32] yielded an IC50 of 100 to 500 nM. `COc1cccc(-c2nc([C@@H]3CCCN(C(=O)Nc4ccccc4C(=O)N(C)C)C3)n3ccccc23)c1` [Compound 5-33] was tested, and the IC50 was 1000 to 3000 nM. In the case of `COc1cccc(-c2nc([C@@H]3CCCN(C(=O)Nc4ccccc4C(C)=O)C3)n3ccccc23)c1` [Compound 5-34], the IC50 is reported as 1000 to 3000 nM. Compound `COc1cccc(-c2nc([C@@H]3CCCN(C(=O)Nc4cccc5c4OCO5)C3)n3ccccc23)c1` [Compound 5-35] has an IC50 of under 100 nM. `COc1cccc(-c2nc([C@@H]3CCCN(C(=O)Nc4cccc(N(C)C)c4)C3)n3ccccc23)c1` [Compound 5-36] gave an IC50 of 100 to 500 nM. In the case of `COc1cccc(-c2nc([C@@H]3CCCN(C(=O)Nc4ccccc4N(C)C)C3)n3ccccc23)c1` [Compound 5-37], the IC50 is reported as 100 to 500 nM. Work on `COc1cccc(-c2nc([C@@H]3CCCN(C(=O)NC4CCc5ccccc5C4)C3)n3ccccc23)c1` (stereo partly shown) [Compound 5-38] yielded an IC50 of 100 to 500 nM. `COc1cccc(-c2nc([C@@H]3CCCN(C(=O)Nc4cccc5ccccc45)C3)n3ccccc23)c1` [Compound 5-39] gave an IC50 of 100 to 500 nM. For `COc1cccc(-c2nc([C@@H]3CCCN(C(=O)Nc4ccc5cccnc5c4)C3)n3ccccc23)c1` [Compound 5-40], the IC50 was under 100 nM. Work on `COCCNC(=O)N1CCC[C@@H](c2nc(-c3cccc(OC)c3)c3ccccn23)C1` [Compound 5-41] yielded an IC50 of 100 to 500 nM. With `COc1cccc(-c2nc([C@@H]3CCCN(C(=O)Nc4ccc5nc(C(C)(C)C)[nH]c5c4)C3)n3ccccc23)c1` [Compound 5-42] the IC50 was under 100 nM. `COc1cccc(-c2nc([C@@H]3CCCN(C(=O)NC4CCCCC4)C3)n3ccccc23)c1` [Compound 5-43] was tested, and the IC50 was 100 to 500 nM. In the case of `COc1cccc(-c2nc([C@@H]3CCCN(C(=O)Nc4ccn(C)n4)C3)n3ccccc23)c1` [Compound 5-44], the IC50 is reported as under 100 nM. `COc1cccc(-c2nc([C@@H]3CCCN(C(=O)NCc4nccs4)C3)n3ccccc23)c1` [Compound 5-45] gave an IC50 of under 100 nM. `COc1cccc(-c2nc([C@@H]3CCCN(C(=O)NCCN4CCCCC4)C3)n3ccccc23)c1` [Compound 5-46] gave an IC50 of 500 to 1000 nM. `COc1cccc(-c2nc([C@@H]3CCCN(C(=O)Nc4ccc5c(c4)CCC(C)(C)O5)C3)n3ccccc23)c1` [Compound 5-47] gave an IC50 of under 100 nM. Work on `COc1cccc(-c2nc([C@@H]3CCCN(C(=O)NC4CCS(=O)(=O)CC4)C3)n3ccccc23)c1` [Compound 5-48] yielded an IC50 of 100 to 500 nM. Work on `CCOCn1cc(NC(=O)N2CCC[C@@H](c3nc(-c4cccc(OC)c4)c4ccccn34)C2)cn1` [Compound 5-49] yielded an IC50 of under 100 nM. `COc1cccc(-c2nc([C@@H]3CCCN(C(=O)Nc4onc(C)c4C)C3)n3ccccc23)c1` [Compound 5-50] gave an IC50 of under 100 nM. `COc1cccc(-c2nc([C@@H]3CCCN(C(=O)Nc4ccc5c(c4)ncn5C)C3)n3ccccc23)c1` [Compound 5-51] showed an IC50 of under 100 nM. `COc1cccc(-c2nc([C@@H]3CCCN(C(=O)NCCS(C)(=O)=O)C3)n3ccccc23)c1` [Compound 5-52] was tested, and the IC50 was 100 to 500 nM. Compound `COc1cccc(-c2nc([C@@H]3CCCN(C(=O)Nc4ccc5c(c4)CN(C)C5)C3)n3ccccc23)c1` [Compound 5-53] has an IC50 of under 100 nM. `CCc1csc(NC(=O)N2CCC[C@@H](c3nc(-c4cccc(OC)c4)c4ccccn34)C2)n1` [Compound 5-54] gave an IC50 of 500 to 1000 nM. `COc1cccc(-c2nc([C@@H]3CCCN(C(=O)NC4(c5ccccc5)CC4)C3)n3ccccc23)c1` [Compound 5-55] gave an IC50 of under 100 nM.
